Patent publication US7261906B2, “Anti-cancer therapy agent of arsenic hexoxide (As4O6) of a natural chemical substance and its pharmaceutical composition” (priority 1998, dated 2007)

Assay: Acute toxicity, single oral administration
Type: in vivo, Rats (Sprague Dawley strain)
Conditions: for Mortality, Days after treatment 1 / Mortality, Days after treatment 2 / Mortality, Days after treatment 3 / Mortality, Days after treatment 4 / Mortality, Days after treatment 5 / Mortality, Days after treatment 6 / Mortality, Days after treatment 7 / Mortality, Days after treatment 8 / Mortality, Days after treatment 9 / Mortality, Days after treatment 10 / Mortality, Days after treatment 11 / Mortality, Days after treatment 12 / Mortality, Days after treatment 13 / Mortality, Days after treatment 14 / Mortality, Hours after treatment 1 / Mortality, Hours after treatment 2 / Mortality, Hours after treatment 3 / Mortality, Hours after treatment 4 / Mortality, Hours after treatment 5 / Mortality, Hours after treatment 6 / Final mortality / Final mortality (dead/total): Female; for Final mortality / Final mortality (dead/total): 14 days; for LD50 (50% Lethal Dose): oral administration
Procedure: The acute toxicity of oral administration of HD-2 was evaluated according to toxicity assessment criteria described in Article 96-8 of Notice on Food and Drug Safety (Apr. 16, 1994). Rats (Sprague Dawley strain) were used for animal experiments. Dosage of a single, oral administration ranged from 0.4 to 1.25 g/kg body weight in male rats and 0.4 to […] body weight in female rats. General conditions of the animals, toxic symptoms, and mortality were measured every hour for the initial 6 hours following the single administration and once a day afterwards for 14 days. Body weights were measured before starting the study, 7 days after the administration, and at autopsy. Expired rats were studied to find the cause of death at autopsy. […] Some rats manifesting these clinical symptoms expired, but others recovered to normal condition within 2 to 3 days of clinical symptoms.

O1[As]2O[As]3O[As]1O[As](O2)O3 [HD-2, arsenic hexoxide (As4O6)]
Mortality, Days after treatment 1 (0.4 g/kg B.W. oral): 0 | Mortality, Days after treatment 2 (0.4 g/kg B.W. oral): 0 | Mortality, Days after treatment 3 (0.4 g/kg B.W. oral): 0 | Mortality, Days after treatment 4 (0.4 g/kg B.W. oral): 0 | Mortality, Days after treatment 5 (0.4 g/kg B.W. oral): 0 | Mortality, Days after treatment 6 (0.4 g/kg B.W. oral): 0 | Mortality, Days after treatment 7 (0.4 g/kg B.W. oral): 0 | Mortality, Days after treatment 8 (0.4 g/kg B.W. oral): 0 | Mortality, Days after treatment 9 (0.4 g/kg B.W. oral): 0 | Mortality, Days after treatment 10 (0.4 g/kg B.W. oral): 0 | Mortality, Days after treatment 11 (0.4 g/kg B.W. oral): 0 | Mortality, Days after treatment 12 (0.4 g/kg B.W. oral): 0 | Mortality, Days after treatment 13 (0.4 g/kg B.W. oral): 0 | Mortality, Days after treatment 14 (0.4 g/kg B.W. oral): 0 | Mortality, Hours after treatment 1 (0.4 g/kg B.W. oral): 0 | Mortality, Hours after treatment 2 (0.4 g/kg B.W. oral): 0 | Mortality, Hours after treatment 3 (0.4 g/kg B.W. oral): 0 | Mortality, Hours after treatment 4 (0.4 g/kg B.W. oral): 0 | Mortality, Hours after treatment 5 (0.4 g/kg B.W. oral): 0 | Mortality, Hours after treatment 6 (0.4 g/kg B.W. oral): 0 | Final mortality (0.4 g/kg B.W. oral): 0% | Final mortality (dead/total) (0.4 g/kg B.W. oral): 0/5 | Mortality, Days after treatment 1 (0.5 g/kg B.W. oral): 0 | Mortality, Days after treatment 2 (0.5 g/kg B.W. oral): 0 | Mortality, Days after treatment 3 (0.5 g/kg B.W. oral): 0 | Mortality, Days after treatment 4 (0.5 g/kg B.W. oral): 0 | Mortality, Days after treatment 5 (0.5 g/kg B.W. oral): 0 | Mortality, Days after treatment 6 (0.5 g/kg B.W. oral): 0 | Mortality, Days after treatment 7 (0.5 g/kg B.W. oral): 0 | Mortality, Days after treatment 8 (0.5 g/kg B.W. oral): 0 | Mortality, Days after treatment 9 (0.5 g/kg B.W. oral): 0 | Mortality, Days after treatment 10 (0.5 g/kg B.W. oral): 0 | Mortality, Days after treatment 11 (0.5 g/kg B.W. oral): 0 | Mortality, Days after treatment 12 (0.5 g/kg B.W. oral): 0 | Mortality, Days after treatment 13 (0.5 g/kg B.W. oral): 0 | Mortality, Days after treatment 14 (0.5 g/kg B.W. oral): 0 | Mortality, Hours after treatment 1 (0.5 g/kg B.W. oral): 0 | Mortality, Hours after treatment 2 (0.5 g/kg B.W. oral): 0 | Mortality, Hours after treatment 3 (0.5 g/kg B.W. oral): 0 | Mortality, Hours after treatment 4 (0.5 g/kg B.W. oral): 0 | Mortality, Hours after treatment 5 (0.5 g/kg B.W. oral): 0 | Mortality, Hours after treatment 6 (0.5 g/kg B.W. oral): 0 | Final mortality (0.5 g/kg B.W. oral): 0% | Final mortality (dead/total) (0.5 g/kg B.W. oral): 0/5 | Mortality, Days after treatment 1 (0.58 g/kg B.W. oral): 1 | Mortality, Days after treatment 2 (0.58 g/kg B.W. oral): 1 | Mortality, Days after treatment 3 (0.58 g/kg B.W. oral): 0 | Mortality, Days after treatment 4 (0.58 g/kg B.W. oral): 0 | Mortality, Days after treatment 5 (0.58 g/kg B.W. oral): 0 | Mortality, Days after treatment 6 (0.58 g/kg B.W. oral): 0 | Mortality, Days after treatment 7 (0.58 g/kg B.W. oral): 0 | Mortality, Days after treatment 8 (0.58 g/kg B.W. oral): 0 | Mortality, Days after treatment 9 (0.58 g/kg B.W. oral): 0 | Mortality, Days after treatment 10 (0.58 g/kg B.W. oral): 0 | Mortality, Days after treatment 11 (0.58 g/kg B.W. oral): 0 | Mortality, Days after treatment 12 (0.58 g/kg B.W. oral): 0 | Mortality, Days after treatment 13 (0.58 g/kg B.W. oral): 0 | Mortality, Days after treatment 14 (0.58 g/kg B.W. oral): 0 | Mortality, Hours after treatment 1 (0.58 g/kg B.W. oral): 0 | Mortality, Hours after treatment 2 (0.58 g/kg B.W. oral): 0 | Mortality, Hours after treatment 3 (0.58 g/kg B.W. oral): 0 | Mortality, Hours after treatment 4 (0.58 g/kg B.W. oral): 0 | Mortality, Hours after treatment 5 (0.58 g/kg B.W. oral): 0 | Mortality, Hours after treatment 6 (0.58 g/kg B.W. oral): 0 | Final mortality (0.58 g/kg B.W. oral): 40% | Final mortality (dead/total) (0.58 g/kg B.W. oral): 2/5 | Mortality, Days after treatment 1 (0.62 g/kg B.W. oral): 3 | Mortality, Days after treatment 2 (0.62 g/kg B.W. oral): 1 | Mortality, Days after treatment 3 (0.62 g/kg B.W. oral): 0 | Mortality, Days after treatment 4 (0.62 g/kg B.W. oral): 0 | Mortality, Days after treatment 5 (0.62 g/kg B.W. oral): 0 | Mortality, Days after treatment 6 (0.62 g/kg B.W. oral): 0 | Mortality, Days after treatment 7 (0.62 g/kg B.W. oral): 0 | Mortality, Days after treatment 8 (0.62 g/kg B.W. oral): 0 | Mortality, Days after treatment 9 (0.62 g/kg B.W. oral): 0 | Mortality, Days after treatment 10 (0.62 g/kg B.W. oral): 0 | Mortality, Days after treatment 11 (0.62 g/kg B.W. oral): 0 | Mortality, Days after treatment 12 (0.62 g/kg B.W. oral): 0 | Mortality, Days after treatment 13 (0.62 g/kg B.W. oral): 0 | Mortality, Days after treatment 14 (0.62 g/kg B.W. oral): 0 | Mortality, Hours after treatment 1 (0.62 g/kg B.W. oral): 0 | Mortality, Hours after treatment 2 (0.62 g/kg B.W. oral): 0 | Mortality, Hours after treatment 3 (0.62 g/kg B.W. oral): 0 | Mortality, Hours after treatment 4 (0.62 g/kg B.W. oral): 0 | Mortality, Hours after treatment 5 (0.62 g/kg B.W. oral): 0 | Mortality, Hours after treatment 6 (0.62 g/kg B.W. oral): 0 | Final mortality (0.62 g/kg B.W. oral): 80% | Final mortality (dead/total) (0.62 g/kg B.W. oral): 4/5 | Mortality, Days after treatment 1 (0.625 g/kg B.W. oral): 1 | Mortality, Days after treatment 2 (0.625 g/kg B.W. oral): 0 | Mortality, Days after treatment 3 (0.625 g/kg B.W. oral): 0 | Mortality, Days after treatment 4 (0.625 g/kg B.W. oral): 0 | Mortality, Days after treatment 5 (0.625 g/kg B.W. oral): 0 | Mortality, Days after treatment 6 (0.625 g/kg B.W. oral): 0 | Mortality, Days after treatment 7 (0.625 g/kg B.W. oral): 0 | Mortality, Days after treatment 8 (0.625 g/kg B.W. oral): 0 | Mortality, Days after treatment 9 (0.625 g/kg B.W. oral): 0 | Mortality, Days after treatment 10 (0.625 g/kg B.W. oral): 0 | Mortality, Days after treatment 11 (0.625 g/kg B.W. oral): 0 | Mortality, Days after treatment 12 (0.625 g/kg B.W. oral): 0 | Mortality, Days after treatment 13 (0.625 g/kg B.W. oral): 0 | Mortality, Days after treatment 14 (0.625 g/kg B.W. oral): 0 | Mortality, Hours after treatment 1 (0.625 g/kg B.W. oral): 0 | Mortality, Hours after treatment 2 (0.625 g/kg B.W. oral): 0 | Mortality, Hours after treatment 3 (0.625 g/kg B.W. oral): 0 | Mortality, Hours after treatment 4 (0.625 g/kg B.W. oral): 0 | Mortality, Hours after treatment 5 (0.625 g/kg B.W. oral): 0 | Mortality, Hours after treatment 6 (0.625 g/kg B.W. oral): 0 | Final mortality (0.625 g/kg B.W. oral): 100% | Final mortality (dead/total) (0.625 g/kg B.W. oral): 5/5 | Changes in weight vs control group (all subgroups of different dosages): did not show any significant difference | LD50 (50% Lethal Dose) (female rats): 0.58 g/kg body weight | LD50 (50% Lethal Dose) (male rats): 0.81 g/kg body weight
